Assay results as given in patent US20250152559A1, “METHODS FOR TREATING MYC-AMPLIFIED CANCER” (The Governing Council of the University of Toronto, priority 2023, published 2025).

Tested on: SU_MB002 cells
Assay: Mass spectrometry-based metabolomics and lipidomics of treated cells
Assay type: cell-based, human
Protocol: For metabolome and lipidome profiling, ˜10^6 cells and tissues were washed with PBS prior to collection and immediately flash frozen. For metabolite extraction, 1 mL of cold acetonitrile/methanol/water (2:2:1; v:v:v) was added to the cell pellets followed by 3 cycles of freezing in liquid N2 for 1 min, followed by 15 min of thawing in a sonicating ice/water bath. This was followed by incubation at −20° C. and centrifugation at 16,000×g for 15 min at 4° C. […] to fully precipitate protein. Supernatants were transferred to another tube and dried in a vacuum concentrator. For lipid extraction, cells were resuspended in 30 μL of water, followed by three cycles of freeze/thawing and sonication. To this, 225 μL of methanol was added, followed by brief vortexing and addition of 750 μL of methyl tert-butyl ether (MTBE). Samples were incubated at room temperature for 1 hr with gentle shaking. To induce phase-separation, 188 μL of water was added, samples were vortexed for 20 s and centrifuged for 5 min at 16,000×g. The upper and lower phases were collected and transferred to another tube and dried down in a vacuum concentrator. The dry metabolome and lipidome extracts were stored at −80° C. prior to analysis by liquid chromatography-mass spectrometry (LC-MS). Metabolite extracts were reconstituted in LC-MS grade water/acetonitrile (50:50; v:v), vortexed for 1 min, sonicated for 15 min, and centrifuged at 16,000×g and 4° C. for 15 min to remove insoluble debris. The lipidome extracts were reconstituted in acetonitrile/2-propanol (50:50; v:v), vortexed for 1 min, sonicated for 15 min, and centrifuged at 16,000×g and 10° C. for 15 min to remove insoluble debris.
The LC-MS metabolomics and lipidomics analyses of the 3 NSC and 3 MB cell lines and tissues were performed on a UPLC-MS system consisting of an Orbitrap IQ-X Tribrid coupled to a Horizon Vanquish UPLC system (Thermo Fisher Scientific). The lipidomics analysis was conducted in positive-ion mode with a spray voltage of 3.5 kV while the metabolomics analysis was conducted in negative-ion mode with a spray voltage of −2.5 kV. The following source conditions were identical in both analyses and were set as follows: Sheath gas flow rate, 50 arbitrary units; Aux. gas flow rate, 10 arbitrary units; Sweep gas flow rate, 1 arbitrary unit; Ion transfer tube temp., 300° C.; Vaporizer temp., 350° C. The following acquisition parameters were used for MS1 analysis in both methods: resolution, 120,000, AGC target, 4e5. The maximum IT was set at […] for the lipidomics analysis and 200 ms for the metabolomics analysis. Data-dependent MS/MS parameters for the lipidomics analyses: resolution, 30,000; AGC target, 7.5e4; maximum IT, Dynamic (54 ms); time between Master Scans, 0.6 s; isolation window, 1.0 m/z; NCE/stepped nce, 20, 30, 40; intensity threshold, 5e4; exclude isotopes, on; dynamic exclusion, 3.0 s. Data-dependent MS/MS parameters for the metabolomics analyses: resolution. 15,000; AGC target, 7.5e4; maximum IT, Dynamic (22 ms); time between Master Scans, 0.6 s; isolation window, 1.0 m/z; NCE/stepped nce, 20, 30, 40, 50; intensity threshold, 5e4; exclude isotopes, on; dynamic exclusion, 5.0 s. To increase the total number of MS/MS spectra in the lipidomics analysis, five runs with iterative MS/MS exclusions were performed using the AcquireX function in Xcalibur (Thermo Fisher Scientific). In the metabolomics analysis, three runs with iterative MS/MS exclusions were performed using the AcquireX function. For the lipidomics analysis, chromatographic separation was achieved using a Waters Acquity UPLC CSH C18 (100 mm×2.1 mm i.d.; 1.7 μm) column injecting 2 μL. […] The column was equilibrated for 2 min at 15% B. The flow rate was set to 250 μL/min. The column temperature was maintained at 65° C. For the metabolomics analysis, chromatographic separation was achieved using a SeQuant ZIC-PHILIC (150 mm×2.1 mm i.d.; 5 μm) column injecting 2 μL. […]

[1] = SU_MB002 cells treated with BAY (IC90)
[2] = SU_MB002 cells, BAY (IC90) vs vehicle

CCn1c(CO)nn(-c2cc(O[C@@H](C)C(F)(F)F)c(C(=O)Nc3c(F)cccc3Cl)cc2F)c1=O [BAY2402234]
2-Aminoadipic acid normalized peak intensity, BAY average [1]: 26487
Argininosuccinic acid normalized peak intensity, BAY average [1]: 114194
Asparagine normalized peak intensity, BAY average [1]: 172639.25
Aspartic Acid normalized peak intensity, BAY average [1]: 214198
CDP normalized peak intensity, BAY average [1]: 5476872.25
CTP normalized peak intensity, BAY average [1]: 810207.75
Citramalate normalized peak intensity, BAY average [1]: 4459.5
Citrate normalized peak intensity, BAY average [1]: 76953
Creatine phosphate normalized peak intensity, BAY average [1]: 619707.25
Cystathionine normalized peak intensity, BAY average [1]: 3636
Dihydroorotic Acid normalized peak intensity, BAY average [1]: 462202
Gluconic acid normalized peak intensity, BAY average [1]: 1081576.5
Glutamate normalized peak intensity, BAY average [1]: 26227101.8
Glyceraldehyde-3-phosphate normalized peak intensity, BAY average [1]: 78313.3333
Hydroxyglutaric acid normalized peak intensity, BAY average [1]: 37974496.3
Inositol normalized peak intensity, BAY average [1]: 40859409.5
N-Acetyl glucosamine monophosphate normalized peak intensity, BAY average [1]: 8697678.5
N-Acetylglutamic Acid normalized peak intensity, BAY average [1]: 189382
N-Carbamoyl Aspartic Acid normalized peak intensity, BAY average [1]: 31547.3333
PE O-32:1 normalized peak intensity, BAY average [1]: 2472183.74
PE O-32:2 normalized peak intensity, BAY average [1]: 11446617.4
PE O-34:1 normalized peak intensity, BAY average [1]: 3839410.03
PE O-34:2 normalized peak intensity, BAY average [1]: 92503648
PE O-36:1 normalized peak intensity, BAY average [1]: 531398.036
PE O-36:2 normalized peak intensity, BAY average [1]: 102597837
PE O-36:4 normalized peak intensity, BAY average [1]: 258977958
PE O-38:4 normalized peak intensity, BAY average [1]: 210123122
PE O-40:2 normalized peak intensity, BAY average [1]: 10612336
PE O-40:4 normalized peak intensity, BAY average [1]: 226507622
PE O-42:3 normalized peak intensity, BAY average [1]: 911901.571
PE O-42:4 normalized peak intensity, BAY average [1]: 13670542.5
PE O-42:5 normalized peak intensity, BAY average [1]: 14681375.2
Proline normalized peak intensity, BAY average [1]: 129729612
Saccharopine normalized peak intensity, BAY average [1]: 11126.3333
Sarcosine normalized peak intensity, BAY average [1]: 178498.5
TG(42:0) normalized peak intensity, BAY average [1]: 15967351.9
TG(44:0) normalized peak intensity, BAY average [1]: 64916660.2
TG(44:1) normalized peak intensity, BAY average [1]: 72494555.5
TG(44:2) normalized peak intensity, BAY average [1]: 23582680.7
TG(46:3) normalized peak intensity, BAY average [1]: 35191113.7
TG(48:0) normalized peak intensity, BAY average [1]: 234715455
TG(48:1) normalized peak intensity, BAY average [1]: 2421262.9
TG(48:3) normalized peak intensity, BAY average [1]: 16895583.2
TG(48:4) normalized peak intensity, BAY average [1]: 33300539.1
TG(48:5) normalized peak intensity, BAY average [1]: 2707280.56
TG(50:0) normalized peak intensity, BAY average [1]: 235218307
TG(50:2) normalized peak intensity, BAY average [1]: 1182402177
TG(50:3) normalized peak intensity, BAY average [1]: 595402718
TG(52:1) normalized peak intensity, BAY average [1]: 649526618
TG(52:5) normalized peak intensity, BAY average [1]: 9440406.47
TG(54:1) normalized peak intensity, BAY average [1]: 104051454
TG(54:6) normalized peak intensity, BAY average [1]: 36773026.8
TG(56:7) normalized peak intensity, BAY average [1]: 13481295.5
UDP normalized peak intensity, BAY average [1]: 964954.5
UDP-Glucose normalized peak intensity, BAY average [1]: 609888.333
UTP normalized peak intensity, BAY average [1]: 215065
Uridine normalized peak intensity, BAY average [1]: 26154.5
Xanthosine normalized peak intensity, BAY average [1]: 617698.75
alpha-Ketoglutaric acid normalized peak intensity, BAY average [1]: 112368
dCTP normalized peak intensity, BAY average [1]: 109835
dTDP normalized peak intensity, BAY average [1]: 13149248
2-Aminoadipic acid Log2 Fold Change: (BAY)/(DMSO) [2]: −1.831
Argininosuccinic acid Log2 Fold Change: (BAY)/(DMSO) [2]: 0.9374
Asparagine Log2 Fold Change: (BAY)/(DMSO) [2]: −2.552
Aspartic Acid Log2 Fold Change: (BAY)/(DMSO) [2]: 0.6679
CDP Log2 Fold Change: (BAY)/(DMSO) [2]: −1.056
CTP Log2 Fold Change: (BAY)/(DMSO) [2]: −1.688
Citramalate Log2 Fold Change: (BAY)/(DMSO) [2]: −1.15
Citrate Log2 Fold Change: (BAY)/(DMSO) [2]: −2.924
Creatine phosphate Log2 Fold Change: (BAY)/(DMSO) [2]: −0.8039
Cystathionine Log2 Fold Change: (BAY)/(DMSO) [2]: −1.709
Dihydroorotic Acid Log2 Fold Change: (BAY)/(DMSO) [2]: −2.147
Gluconic acid Log2 Fold Change: (BAY)/(DMSO) [2]: 2.808
Glutamate Log2 Fold Change: (BAY)/(DMSO) [2]: 0.5525
Glyceraldehyde-3-phosphate Log2 Fold Change: (BAY)/(DMSO) [2]: −1.224
Hydroxyglutaric acid Log2 Fold Change: (BAY)/(DMSO) [2]: 7.211
Inositol Log2 Fold Change: (BAY)/(DMSO) [2]: −0.7576
N-Acetyl glucosamine monophosphate Log2 Fold Change: (BAY)/(DMSO) [2]: −0.5317
N-Acetylglutamic Acid Log2 Fold Change: (BAY)/(DMSO) [2]: 1.218
N-Carbamoyl Aspartic Acid Log2 Fold Change: (BAY)/(DMSO) [2]: −2.853
PE O-32:1 Log2 Fold Change: (BAY)/(DMSO) [2]: 1.371
PE O-32:2 Log2 Fold Change: (BAY)/(DMSO) [2]: 1.59
PE O-34:1 Log2 Fold Change: (BAY)/(DMSO) [2]: 0.7945
PE O-34:2 Log2 Fold Change: (BAY)/(DMSO) [2]: 1.319
PE O-36:1 Log2 Fold Change: (BAY)/(DMSO) [2]: 0.9815
PE O-36:2 Log2 Fold Change: (BAY)/(DMSO) [2]: 0.7435
PE O-36:4 Log2 Fold Change: (BAY)/(DMSO) [2]: 0.9655
PE O-38:4 Log2 Fold Change: (BAY)/(DMSO) [2]: 0.6388
PE O-40:2 Log2 Fold Change: (BAY)/(DMSO) [2]: 0.4723
PE O-40:4 Log2 Fold Change: (BAY)/(DMSO) [2]: 0.2968
PE O-42:3 Log2 Fold Change: (BAY)/(DMSO) [2]: 0.5216
PE O-42:4 Log2 Fold Change: (BAY)/(DMSO) [2]: 0.6964
PE O-42:5 Log2 Fold Change: (BAY)/(DMSO) [2]: 0.2828
Proline Log2 Fold Change: (BAY)/(DMSO) [2]: 11.27
Saccharopine Log2 Fold Change: (BAY)/(DMSO) [2]: −1.712
Sarcosine Log2 Fold Change: (BAY)/(DMSO) [2]: −0.4764
TG(42:0) Log2 Fold Change: (BAY)/(DMSO) [2]: 2.859
TG(44:0) Log2 Fold Change: (BAY)/(DMSO) [2]: 2.947
TG(44:1) Log2 Fold Change: (BAY)/(DMSO) [2]: 3.568
TG(44:2) Log2 Fold Change: (BAY)/(DMSO) [2]: 4.285
TG(46:3) Log2 Fold Change: (BAY)/(DMSO) [2]: 4.265
TG(48:0) Log2 Fold Change: (BAY)/(DMSO) [2]: 1.816
TG(48:1) Log2 Fold Change: (BAY)/(DMSO) [2]: 2.541
TG(48:3) Log2 Fold Change: (BAY)/(DMSO) [2]: 3.131
TG(48:4) Log2 Fold Change: (BAY)/(DMSO) [2]: 3.96
TG(48:5) Log2 Fold Change: (BAY)/(DMSO) [2]: 5.389
TG(50:0) Log2 Fold Change: (BAY)/(DMSO) [2]: 1.574
TG(50:2) Log2 Fold Change: (BAY)/(DMSO) [2]: 1.881
TG(50:3) Log2 Fold Change: (BAY)/(DMSO) [2]: 2.346
TG(52:1) Log2 Fold Change: (BAY)/(DMSO) [2]: 1.065
TG(52:5) Log2 Fold Change: (BAY)/(DMSO) [2]: 2.418
TG(54:1) Log2 Fold Change: (BAY)/(DMSO) [2]: 0.738
TG(54:6) Log2 Fold Change: (BAY)/(DMSO) [2]: 1.79
TG(56:7) Log2 Fold Change: (BAY)/(DMSO) [2]: 1.418
UDP Log2 Fold Change: (BAY)/(DMSO) [2]: −3.019
UDP-Glucose Log2 Fold Change: (BAY)/(DMSO) [2]: −2.77
UTP Log2 Fold Change: (BAY)/(DMSO) [2]: −3.375
Uridine Log2 Fold Change: (BAY)/(DMSO) [2]: −4.037
Xanthosine Log2 Fold Change: (BAY)/(DMSO) [2]: 3.486
alpha-Ketoglutaric acid Log2 Fold Change: (BAY)/(DMSO) [2]: −1.687
dCTP Log2 Fold Change: (BAY)/(DMSO) [2]: 2.27
dTDP Log2 Fold Change: (BAY)/(DMSO) [2]: 1.896
